Assay results: ChEMBL document CHEMBL2385026, “Identification of C-2 hydroxyethyl imidazopyrrolopyridines as potent JAK1 inhibitors with favorable physicochemical properties and high selectivity over JAK2” (J Med Chem, 2013)
Values after ≈ are worked out from the molar mass of the structure shown.

Columns and labels:
Cytochrome P450 1A2 = biological target: T1, Cytochrome P450 1A2 (Homo sapiens, UniProt P05177); test: Reversible inhibition of CYP1A2 in human liver microsomes using phenacetin as substrate by LC/MS/MS analysis; type: ADME, Microsome
T1 sequence (P05177 whole entry): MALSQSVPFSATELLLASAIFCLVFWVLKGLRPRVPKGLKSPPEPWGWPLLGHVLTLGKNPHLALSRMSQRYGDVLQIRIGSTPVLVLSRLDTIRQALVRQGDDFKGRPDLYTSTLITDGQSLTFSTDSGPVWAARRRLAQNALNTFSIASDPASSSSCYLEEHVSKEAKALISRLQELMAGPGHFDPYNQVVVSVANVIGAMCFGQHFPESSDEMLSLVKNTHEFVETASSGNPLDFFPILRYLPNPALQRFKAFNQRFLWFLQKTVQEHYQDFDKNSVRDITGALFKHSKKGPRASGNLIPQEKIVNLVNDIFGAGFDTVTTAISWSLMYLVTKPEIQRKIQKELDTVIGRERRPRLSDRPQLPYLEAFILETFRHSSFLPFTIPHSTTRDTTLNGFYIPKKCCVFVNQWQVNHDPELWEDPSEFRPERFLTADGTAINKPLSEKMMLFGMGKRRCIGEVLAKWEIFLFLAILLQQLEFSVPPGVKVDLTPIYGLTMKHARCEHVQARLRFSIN

Cytochrome P450 2D6 = Cytochrome P450 2D6 (Homo sapiens, UniProt P10635)
Sequence of Cytochrome P450 2D6 (P10635 whole entry): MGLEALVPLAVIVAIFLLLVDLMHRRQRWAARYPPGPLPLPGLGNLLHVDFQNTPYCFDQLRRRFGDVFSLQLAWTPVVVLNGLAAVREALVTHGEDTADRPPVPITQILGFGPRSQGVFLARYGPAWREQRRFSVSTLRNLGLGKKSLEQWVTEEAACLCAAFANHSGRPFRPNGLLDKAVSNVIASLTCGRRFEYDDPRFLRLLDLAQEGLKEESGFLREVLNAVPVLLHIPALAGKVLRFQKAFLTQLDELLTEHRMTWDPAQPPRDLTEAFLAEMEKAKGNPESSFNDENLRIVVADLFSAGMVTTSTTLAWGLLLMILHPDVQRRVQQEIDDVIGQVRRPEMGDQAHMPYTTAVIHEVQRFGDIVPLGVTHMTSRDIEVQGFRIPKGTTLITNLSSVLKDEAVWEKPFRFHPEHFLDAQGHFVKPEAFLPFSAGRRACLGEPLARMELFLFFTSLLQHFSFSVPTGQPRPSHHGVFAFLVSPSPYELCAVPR

[1] = Metabolic stability in dog hepatocytes assessed as hepatic clearance; type: ADME, cell-based, Canis lupus familiaris, Liver, Hepatocyte
[2] = Thermodynamic solubility in aqueous buffer at pH 2; type: physicochemical; conditions: read-out: Therm_solubility
[3] = Half life in Beagle dog at 0.4 mg/kg, iv by LC/MS/MS analysis; type: ADME, organism-based, Canis lupus familiaris; design: dose 0.4 mg/kg, route intravenous; conditions: in vivo
[4] = Plasma protein binding in rat; type: ADME, cell-free; conditions: read-out: PPB (converted)
[5] = Hepatic clearance in human liver microsomes by LC/MS/MS analysis; type: ADME, Microsome
[6] = biological target: T2, Tyrosine-protein kinase JAK1 (Homo sapiens, UniProt P23458)
T2 sequence (P23458 whole entry): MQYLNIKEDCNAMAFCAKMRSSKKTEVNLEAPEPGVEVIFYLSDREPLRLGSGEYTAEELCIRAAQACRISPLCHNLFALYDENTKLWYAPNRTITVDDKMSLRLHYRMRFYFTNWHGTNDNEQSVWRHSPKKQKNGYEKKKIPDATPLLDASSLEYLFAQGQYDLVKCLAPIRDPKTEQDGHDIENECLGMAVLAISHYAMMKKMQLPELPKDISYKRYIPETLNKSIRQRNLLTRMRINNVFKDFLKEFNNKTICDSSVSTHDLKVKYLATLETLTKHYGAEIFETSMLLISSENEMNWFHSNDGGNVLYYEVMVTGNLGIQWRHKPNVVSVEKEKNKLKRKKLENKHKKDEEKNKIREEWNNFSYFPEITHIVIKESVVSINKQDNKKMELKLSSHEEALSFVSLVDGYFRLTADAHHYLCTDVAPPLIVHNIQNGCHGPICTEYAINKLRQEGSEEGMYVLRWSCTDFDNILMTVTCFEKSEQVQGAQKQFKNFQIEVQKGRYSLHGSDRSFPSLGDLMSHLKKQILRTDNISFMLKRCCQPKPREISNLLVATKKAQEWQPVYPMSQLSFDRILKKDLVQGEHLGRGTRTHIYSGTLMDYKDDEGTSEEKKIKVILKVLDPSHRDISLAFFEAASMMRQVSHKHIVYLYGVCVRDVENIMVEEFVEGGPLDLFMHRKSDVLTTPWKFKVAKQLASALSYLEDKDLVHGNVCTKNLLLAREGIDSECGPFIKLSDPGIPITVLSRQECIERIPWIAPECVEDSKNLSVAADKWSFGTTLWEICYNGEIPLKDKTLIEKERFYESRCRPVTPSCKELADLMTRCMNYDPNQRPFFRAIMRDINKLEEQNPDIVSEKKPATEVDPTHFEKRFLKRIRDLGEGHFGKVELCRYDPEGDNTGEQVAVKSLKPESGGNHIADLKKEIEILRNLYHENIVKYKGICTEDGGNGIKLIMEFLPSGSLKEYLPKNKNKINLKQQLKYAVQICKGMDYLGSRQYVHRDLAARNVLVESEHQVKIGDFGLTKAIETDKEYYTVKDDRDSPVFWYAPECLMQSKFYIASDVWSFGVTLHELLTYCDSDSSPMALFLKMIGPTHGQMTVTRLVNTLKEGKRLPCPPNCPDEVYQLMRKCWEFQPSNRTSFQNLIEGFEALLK

[7] = biological target: T2, Tyrosine-protein kinase JAK1; remark: listed apart in the source
[8] = Clearance in Sprague-Dawley rat at 0.4 mg/kg, iv by LC/MS/MS analysis; type: ADME, organism-based; design: dose 0.4 mg/kg, route intravenous; conditions: in vivo
[9] = AUC in Beagle dog at 2 mg/kg, po by LC/MS/MS analysis; type: ADME, organism-based, Canis lupus familiaris; design: dose 2 mg/kg, route oral; conditions: plasma
[10] = Plasma protein binding in cynomolgus monkey; type: ADME, cell-free, Macaca fascicularis; conditions: read-out: PPB (converted)
Cytochrome P450 2C9 = Cytochrome P450 2C9 (Homo sapiens, UniProt P11712)
Sequence of Cytochrome P450 2C9 (P11712 whole entry): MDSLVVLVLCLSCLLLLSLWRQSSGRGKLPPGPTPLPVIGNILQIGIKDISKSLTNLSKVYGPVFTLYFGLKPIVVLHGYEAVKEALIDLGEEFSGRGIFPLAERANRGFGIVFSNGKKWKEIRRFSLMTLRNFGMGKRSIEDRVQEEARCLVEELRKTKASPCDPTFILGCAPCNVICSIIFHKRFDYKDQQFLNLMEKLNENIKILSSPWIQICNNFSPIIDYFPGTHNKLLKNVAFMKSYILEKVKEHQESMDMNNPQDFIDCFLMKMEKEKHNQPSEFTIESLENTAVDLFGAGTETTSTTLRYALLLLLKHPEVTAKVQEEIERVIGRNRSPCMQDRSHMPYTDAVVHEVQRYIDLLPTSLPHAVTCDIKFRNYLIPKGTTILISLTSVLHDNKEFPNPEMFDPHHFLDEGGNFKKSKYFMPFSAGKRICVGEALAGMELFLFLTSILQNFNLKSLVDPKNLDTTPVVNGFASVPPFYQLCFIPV

[11] = biological target: T2, Tyrosine-protein kinase JAK1; remark: listed apart in the source
[12] = biological target: T3, Non-receptor tyrosine-protein kinase TYK2 (Homo sapiens, UniProt P29597)
T3 sequence (P29597 whole entry): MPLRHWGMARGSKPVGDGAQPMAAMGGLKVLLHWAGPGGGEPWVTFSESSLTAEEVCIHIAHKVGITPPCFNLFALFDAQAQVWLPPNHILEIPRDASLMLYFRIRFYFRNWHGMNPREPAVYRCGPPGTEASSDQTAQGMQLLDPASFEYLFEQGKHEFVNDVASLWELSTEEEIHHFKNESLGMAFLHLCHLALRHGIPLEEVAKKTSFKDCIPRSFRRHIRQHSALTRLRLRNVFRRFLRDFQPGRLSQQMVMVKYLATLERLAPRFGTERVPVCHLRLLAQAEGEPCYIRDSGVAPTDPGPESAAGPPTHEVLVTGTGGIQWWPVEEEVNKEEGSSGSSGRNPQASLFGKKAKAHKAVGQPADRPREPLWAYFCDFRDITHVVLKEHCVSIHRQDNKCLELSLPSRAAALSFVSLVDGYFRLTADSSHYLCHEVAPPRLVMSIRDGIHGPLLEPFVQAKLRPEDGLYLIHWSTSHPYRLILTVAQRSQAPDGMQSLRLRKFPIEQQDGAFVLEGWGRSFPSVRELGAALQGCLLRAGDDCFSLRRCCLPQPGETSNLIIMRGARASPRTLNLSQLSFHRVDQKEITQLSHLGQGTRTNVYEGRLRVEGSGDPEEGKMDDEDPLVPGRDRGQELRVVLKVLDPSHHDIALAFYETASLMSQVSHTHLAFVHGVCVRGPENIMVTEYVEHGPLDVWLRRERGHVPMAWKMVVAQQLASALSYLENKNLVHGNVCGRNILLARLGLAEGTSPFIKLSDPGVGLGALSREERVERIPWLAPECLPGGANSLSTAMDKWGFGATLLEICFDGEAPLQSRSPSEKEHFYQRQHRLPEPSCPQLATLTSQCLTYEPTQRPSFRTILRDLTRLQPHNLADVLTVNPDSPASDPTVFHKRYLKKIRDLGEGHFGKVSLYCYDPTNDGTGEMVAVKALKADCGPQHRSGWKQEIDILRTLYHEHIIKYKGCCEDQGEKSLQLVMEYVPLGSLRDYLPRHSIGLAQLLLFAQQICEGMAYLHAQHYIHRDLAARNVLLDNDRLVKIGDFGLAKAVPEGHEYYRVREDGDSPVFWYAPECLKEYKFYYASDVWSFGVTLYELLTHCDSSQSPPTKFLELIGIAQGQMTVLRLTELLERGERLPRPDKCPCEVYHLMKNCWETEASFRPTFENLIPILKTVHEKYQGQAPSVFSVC

[13] = biological target: Tyrosine-protein kinase JAK3 (Homo sapiens, UniProt P52333)
[14] = Plasma protein binding in dog; type: ADME, cell-free, Canis lupus familiaris; conditions: read-out: PPB (converted)
[15] = Half life in Sprague-Dawley rat at 0.4 mg/kg, iv by LC/MS/MS analysis; type: ADME, organism-based; design: dose 0.4 mg/kg, route intravenous; conditions: in vivo
[16] = Metabolic stability in rat hepatocytes assessed as hepatic clearance; type: ADME, cell-based, Liver, Hepatocyte
[17] = Hepatic clearance in human hepatocytes after 1 to 4 hrs by LC/MS/MS analysis; type: ADME, cell-based, Liver, Hepatocyte
Cytochrome P450 3A4 [18] = biological target: T4, Cytochrome P450 3A4 (Homo sapiens, UniProt P08684); test: Reversible inhibition of CYP3A4 in human liver microsomes using midazolam as substrate by LC/MS/MS analysis; type: ADME, Microsome
T4 sequence (P08684 whole entry): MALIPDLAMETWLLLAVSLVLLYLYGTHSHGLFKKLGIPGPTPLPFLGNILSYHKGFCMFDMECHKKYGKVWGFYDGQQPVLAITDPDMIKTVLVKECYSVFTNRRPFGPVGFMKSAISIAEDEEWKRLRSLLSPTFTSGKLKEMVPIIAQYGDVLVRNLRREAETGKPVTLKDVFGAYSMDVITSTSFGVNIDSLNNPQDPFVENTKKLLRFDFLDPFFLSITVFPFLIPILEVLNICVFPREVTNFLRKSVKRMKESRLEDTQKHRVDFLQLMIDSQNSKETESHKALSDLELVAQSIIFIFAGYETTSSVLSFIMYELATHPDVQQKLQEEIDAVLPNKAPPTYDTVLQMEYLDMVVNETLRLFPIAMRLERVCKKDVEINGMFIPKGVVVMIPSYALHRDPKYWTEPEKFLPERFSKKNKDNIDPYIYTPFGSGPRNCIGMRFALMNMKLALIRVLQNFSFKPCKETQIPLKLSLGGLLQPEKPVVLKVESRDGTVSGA

[19] = biological target: T3, Non-receptor tyrosine-protein kinase TYK2; remark: listed apart in the source
[20] = (§1) Oral bioavailability in Sprague-Dawley rat at 2 mg/kg by LC/MS/MS analysis; type: ADME, organism-based; conditions: Sprague-Dawley, in vivo
[21] = Metabolic stability in monkey hepatocytes assessed as hepatic clearance; type: ADME, cell-based, Macaca mulatta, Liver, Hepatocyte; conditions: rhesus monkey
[22] = Apparent permeability across basolateral to apical side in dog MDCK cells; type: ADME, cell-based, Canis lupus familiaris
Cytochrome P450 3A4 [23] = biological target: T4, Cytochrome P450 3A4; test: Reversible inhibition of CYP3A4 in human liver microsomes using testosterone as substrate by LC/MS/MS analysis; type: ADME, Microsome
[24] = Clearance in Beagle dog at 0.4 mg/kg, iv by LC/MS/MS analysis; type: ADME, organism-based, Canis lupus familiaris; design: dose 0.4 mg/kg, route intravenous; conditions: in vivo
[25] = Cmax in Sprague-Dawley rat at 2 mg/kg, po by LC/MS/MS analysis; type: ADME, organism-based; design: dose 2 mg/kg, route oral; conditions: in vivo
[26] = Thermodynamic solubility in aqueous buffer at pH 7.4; type: physicochemical; conditions: read-out: Therm_solubility
[27] = Cmax in Beagle dog at 2 mg/kg, po by LC/MS/MS analysis; type: ADME, organism-based, Canis lupus familiaris; design: dose 2 mg/kg, route oral; conditions: in vivo
[28] = AUC in Sprague-Dawley rat at 2 mg/kg, po by LC/MS/MS analysis; type: ADME, organism-based; design: dose 2 mg/kg, route oral; conditions: plasma
Canis familiaris = test: (§2) Oral bioavailability in Beagle dog at 2 mg/kg by LC/MS/MS analysis; type: ADME, organism-based, Canis lupus familiaris; conditions: in vivo
[29] = Apparent permeability across apical to basolateral side in dog MDCK cells; type: ADME, cell-based, Canis lupus familiaris
Cytochrome P450 2C19 = Cytochrome P450 2C19 (Homo sapiens, UniProt P33261)
Sequence of Cytochrome P450 2C19 (P33261 whole entry): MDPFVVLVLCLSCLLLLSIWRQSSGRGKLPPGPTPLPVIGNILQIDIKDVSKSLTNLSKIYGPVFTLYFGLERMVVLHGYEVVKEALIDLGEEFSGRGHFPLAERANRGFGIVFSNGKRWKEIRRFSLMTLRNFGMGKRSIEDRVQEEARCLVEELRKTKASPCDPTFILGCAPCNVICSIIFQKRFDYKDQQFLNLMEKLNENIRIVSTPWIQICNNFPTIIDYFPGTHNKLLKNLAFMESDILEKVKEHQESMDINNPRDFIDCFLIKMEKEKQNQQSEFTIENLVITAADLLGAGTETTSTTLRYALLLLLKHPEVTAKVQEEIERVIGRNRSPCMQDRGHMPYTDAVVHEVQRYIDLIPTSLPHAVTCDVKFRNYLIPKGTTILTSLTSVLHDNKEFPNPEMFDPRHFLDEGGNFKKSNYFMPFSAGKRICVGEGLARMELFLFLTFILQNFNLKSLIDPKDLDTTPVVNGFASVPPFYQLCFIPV

[30] = Cmax in cynomolgus monkey at 2 mg/kg, po by LC/MS/MS analysis; type: ADME, organism-based, Macaca fascicularis; design: dose 2 mg/kg, route oral; conditions: in vivo
[31] = AUC in cynomolgus monkey at 2 mg/kg, po by LC/MS/MS analysis; type: ADME, organism-based, Macaca fascicularis; design: dose 2 mg/kg, route oral; conditions: plasma
[32] = biological target: Voltage-gated inwardly rectifying potassium channel KCNH2 (Homo sapiens, UniProt Q12809)
[33] = Half life in cynomolgus monkey at 0.4 mg/kg, iv by LC/MS/MS analysis; type: ADME, organism-based, Macaca fascicularis; design: dose 0.4 mg/kg, route intravenous; conditions: in vivo
Rattus norvegicus = test: as §1; type: ADME, organism-based; conditions: in vivo
[34] = Clearance in cynomolgus monkey at 0.4 mg/kg, iv by LC/MS/MS analysis; type: ADME, organism-based, Macaca fascicularis; design: dose 0.4 mg/kg, route intravenous; conditions: in vivo
[35] = as §2; type: ADME, organism-based, Canis lupus familiaris; conditions: Beagle, in vivo
[36] = Oral bioavailability in cynomolgus monkey at 2 mg/kg by LC/MS/MS analysis; type: ADME, organism-based, Macaca fascicularis; conditions: in vivo

Compound	IC50 (Cytochrome P450 1A2)	IC50 (Cytochrome P450 2D6)	CLhep predicted [1]	solubility thermodynamic [2]	half-life [3]	fraction unbound [4]	CLhep predicted [5]	EC50 [6]	Ki [7]	clearance [8]	AUC [9]	fraction unbound [10]	IC50 (Cytochrome P450 2C9)	EC50 [11]	Ki [12]	fraction unbound [14]	half-life [15]	CLhep predicted [16]	CLhep predicted [17]	IC50 (Cytochrome P450 3A4 [18])	also measured
C[C@@H](O)c1nc2cnc3[nH]ccc3c2n1[C@H]1CC[C@H](CC#N)CC1	> 10000 nM	> 10000 nM	12 mL/min/kg	> 4 mM	1.8 h	0.37	5.2 mL/min/kg	28 nM	0.1 nM	38 mL/min/kg	11.2 µM·h	0.3	> 10000 nM	5.7 nM	0.4 nM	0.37	0.5 h	15 mL/min/kg	6.8 mL/min/kg	8800 nM	Ki [13]: 5.9 nM; EC50 [19]: 100 nM; bioavailability [20]: 49%; CLhep predicted [21]: 25 mL/min/kg; Papp B→A [22]: 4.9 ×10⁻⁶ cm/s; IC50 (Cytochrome P450 3A4 [23]): > 10000 nM; clearance [24]: 17 mL/min/kg; Cmax [25]: 930 nM; solubility thermodynamic [26]: 0.13 mM (≈ 42 µg/mL); Cmax [27]: 2500 nM; AUC [28]: 1.3 µM·h; F (Canis familiaris): 183%; Papp A→B [29]: 3.5 ×10⁻⁶ cm/s; IC50 (Cytochrome P450 2C19): > 10000 nM
C[C@@H](O)c1nc2cnc3[nH]ccc3c2n1[C@H]1CCCOC1	> 10000 nM	> 10000 nM	4.9 mL/min/kg	> 4 mM	5.7 h	0.61	2 mL/min/kg	180 nM	2.8 nM	22 mL/min/kg	65.7 µM·h	0.46	> 10000 nM	110 nM	31 nM	0.39	1.5 h	2.3 mL/min/kg	1.9 mL/min/kg	> 10000 nM	Cmax [30]: 1800 nM; AUC [31]: 4.3 µM·h; IC50 [32]: > 100000 nM; half-life [33]: 1.1 h; EC50 [19]: > 5800 nM; F (Rattus norvegicus): 197%; CLhep predicted [21]: 21 mL/min/kg; Papp B→A [22]: 8.6 ×10⁻⁶ cm/s; IC50 (Cytochrome P450 3A4 [23]): > 10000 nM; clearance [24]: 2.1 mL/min/kg; clearance [34]: 19 mL/min/kg; Cmax [25]: 5200 nM; solubility thermodynamic [26]: > 4 mM; Cmax [27]: 9800 nM; AUC [28]: 10.7 µM·h; bioavailability [35]: 111%; bioavailability [36]: 70%; Papp A→B [29]: 7.6 ×10⁻⁶ cm/s; IC50 (Cytochrome P450 2C19): > 10000 nM
